Source: patent US8188081B2, “Methods of treating inflammation using prokineticin 1 receptor antagonists” (Janssen Pharmaceutica, NV, priority 2005, dated 2012)
Each block holds one molecule with its values, some of them ahead of it.

Legend:
PK1R [1] = biological target: T1, PK1R (Rattus norvegicus, UniProt Q8R416); conditions: test compound 1 μM basolateral, 15 min; PK1 10 and 100 nM cumulative; FIGS. 9-11
Description: Methodology. The basic methodology for Using-type ion flux chambers used in these studies was the same as that described in detail above with the following modifications to the experimental protocol. […] The responses to two sequential EFS were used to guage tissue viability and comparability of the responses of individual tissues from each rat and between rats. Tissue conductance was measured at periodic intervals as changes in the amplitudes of brief short-circuit current responses evoked by application of 1 mV amplitude bi-polar pulses from a pulse generator using Ohm's Law. Three to four tissues from each rat were studied. The tissues from a given animal were grouped and assigned accordingly: one control tissue which received only vehicle followed by two consecutive doses of PK1 ligand added in a cumulative fashion to the basolateral surface of the tissue; the remaining two to three tissues from the same animal were assigned to be exposed to a given PK1 receptor antagonist (e.g., 3-4 tissues from 1 rat: Control, Antagonist1, Antagonist2, Antagonist3). Test compound was added to the basolateral tissue side reservoir at a final concentration of 1 μM and allowed a 15 minute incubation period prior to challenge with the PK1 peptide. At the end of this 15 minute exposure period, PK1 ligand at 10 and 100 nM was added in a cumulative fashion to each tissue to characterize the inhibitory effect of the test compound. At the conclusion of the experiment, EFS was re-applied to guage tissue viability and stability of responsiveness.

PK1R [2] = biological target: T1, PK1R; experiment: Inhibition of PK1-induced contraction of rat ileal longitudinal smooth muscle by PK1R antagonists (organ bath); set-up: from tissue; host or cells: isolated rat ileum (organ bath); conditions: FIG. 19
Description: The effects of PK1 on isolated segments of rodent gastrointestinal (GI) tissues have been studied ex vivo, using a “myobath” apparatus. This organ bath apparatus is used to measure the changes in contractile activity of GI smooth muscle following application of PK1, in the presence or absence of compounds that block PK1 receptor (PK1R)-mediated increases in intracellular free Ca^2+ in PK1R-transfected cells in vitro.
Methods. Rodents (mice, rats, and guinea pigs) were euthanized by […], and exsanguinated. Segments of GI tissues, including stomach, duodenum, jejunum, ileum, proximal colon and distal colon were resected from the animals and mounted, either as intact segments (i.e., 15 mm long cylinders of intestine) or flat strips (˜2.5 mm×15 mm) oriented along the longitudinal muscle axis. In some experiments flat strips were oriented along the circular muscle axis. […]
The tissues were lengthened to impart a resting load of between […] (depending on the preparation), and equilibrated under these conditions for 1 hr, changing the bathing solution to fresh KRB every 15 min. […] The response to PK1 under these conditions is compared to the response of the same tissue preparation to ACh and the contraction (or relaxation) calculated as a percent of the response to ACh. […]

[3] = biological target: T2, basolateral Na+-K+-2Cl- co-transporter (Rattus norvegicus, UniProt E9PTX9); conditions: bumetanide 500 μM
T2 sequence (E9PTX9 1-1203): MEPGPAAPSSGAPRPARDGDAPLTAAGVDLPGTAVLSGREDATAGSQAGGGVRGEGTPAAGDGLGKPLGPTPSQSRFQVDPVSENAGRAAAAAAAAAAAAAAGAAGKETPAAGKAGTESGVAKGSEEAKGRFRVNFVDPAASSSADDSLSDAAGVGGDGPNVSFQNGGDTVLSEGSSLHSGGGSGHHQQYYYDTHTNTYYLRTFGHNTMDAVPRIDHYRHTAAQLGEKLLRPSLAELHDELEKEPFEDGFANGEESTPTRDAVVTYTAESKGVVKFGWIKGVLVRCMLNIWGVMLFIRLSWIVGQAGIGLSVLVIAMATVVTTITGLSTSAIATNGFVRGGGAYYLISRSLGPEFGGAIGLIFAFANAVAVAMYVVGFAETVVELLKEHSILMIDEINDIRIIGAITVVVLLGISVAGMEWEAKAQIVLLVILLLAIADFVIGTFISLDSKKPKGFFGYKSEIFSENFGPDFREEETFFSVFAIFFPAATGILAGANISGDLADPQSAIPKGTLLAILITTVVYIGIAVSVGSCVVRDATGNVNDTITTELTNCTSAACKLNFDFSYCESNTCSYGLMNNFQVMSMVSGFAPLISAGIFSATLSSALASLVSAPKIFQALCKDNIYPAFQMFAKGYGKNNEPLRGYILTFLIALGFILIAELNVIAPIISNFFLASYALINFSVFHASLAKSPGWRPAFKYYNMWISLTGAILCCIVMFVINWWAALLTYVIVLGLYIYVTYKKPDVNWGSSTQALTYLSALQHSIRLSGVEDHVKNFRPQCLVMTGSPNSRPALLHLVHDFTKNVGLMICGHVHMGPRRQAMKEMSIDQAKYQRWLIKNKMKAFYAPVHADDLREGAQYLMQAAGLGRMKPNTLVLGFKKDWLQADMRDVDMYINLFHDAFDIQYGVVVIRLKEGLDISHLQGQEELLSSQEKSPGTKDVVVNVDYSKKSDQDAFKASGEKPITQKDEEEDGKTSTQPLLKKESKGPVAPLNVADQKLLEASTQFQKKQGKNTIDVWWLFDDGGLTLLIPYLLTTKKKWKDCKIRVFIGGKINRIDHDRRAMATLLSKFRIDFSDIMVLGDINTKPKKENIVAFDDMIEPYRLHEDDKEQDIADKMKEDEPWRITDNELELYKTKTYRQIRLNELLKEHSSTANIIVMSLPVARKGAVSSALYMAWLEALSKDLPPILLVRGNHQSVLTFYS
Description: Methodology. The basic methodology for Using-type ion flux chambers used in these studies was the same as that described in detail above with the following modifications to the experimental protocol. To determine the mechanism of action of the pro-secretory action of PK1 on the epithelium, three separate approaches were utilized to abolish electrogenic chloride ion or bicarbonate ion transport across the epithelium. […] The second approach involved replacement of all chloride ions in the physiological buffer solution used to maintain living tissues in the Using chambers, thus substituting a chloride-free KRB solution by an equimolar substitution of isethionate and acetate salts for the chloride salts listed in the standard KRB recipe above. The third approach involved replacement of all bicarbonate ions in the physiological buffer solution, thus substituting a bicarbonate-free KRB solution by an equimolar substitution of Piperazine-N,N′-bis(2-ethanesulfonic acid) (PIPES) for the bicarbonate salt, and addition of 1 mM acetazolamide, a blocker of intracellular carbonic anhydrase, to prevent bicarbonate production by the enterocyte.

[4] = tested on: ileum mucosal tissues from PK1 receptor knock-out mice; experiment: PK1-evoked Isc in ileum mucosal tissues from PK1 receptor knock-out mice; conditions: exogenous PK1 peptide; FIG. 5
rat small intestine [5] = experiment: Enteropooling and accumulation of fluid in rat small intestine in vivo; conditions: 30 min
Description: Methodology. Experiments were carried out to gravimetrically measure the in vivo pro-secretory effect of PK1 peptide in the rat small bowel. The effect of PK1 peptide on stimulation of enteropooling and accumulation of fluid in the gut of intact rats was evaluated using two different routes of administration. Non-fasted rats were randomly assigned to two experimental groups (n=10 per group) in two separate experiments. In the first experiment, each rat was given an oral bolus (1.5 ml) of 6% carmine dye in 0.5% methylcellulose wt/vol containing a dose of PK1 peptide at 100 μg/kg or buffer vehicle. (See FIG. 12). […] (See FIG. 13). Thirty minutes later, rats were rapidly euthanized by cervical dislocation after inhalation anesthesia with 100% carbon dioxide and the entire small intestine was excised from the pylorus to the ileocecal junction. The total small bowel length was measured and then divided equally into thirds using 4-0 silk suture loops to ligate, isolate, and separate each segment to prevent leakage of intraluminal contents. […] Net fluid content weight was calculated as the difference between intact and empty intestinal segment weights to the nearest milligram and normalized to segment wet tissue weight in grams.

rat small intestine [6] = experiment: Small intestinal transit of an oral carmine test meal in rats in vivo; conditions: oral PK1 100 μg/kg; 30 min; FIG. 14
Description: Methodology. Small intestinal transit. Rats received a bolus of 1.5 ml total volume that contained a 6% solution of carmine dye in 0.5% methyl cellulose (wt/vol) together with a dose of either PK1 (100 μg/kg) or vehicle by oral feeding tube. After 30 min, the rats were rapidly euthanized by cervical dislocation after inhalation anesthesia with 100% carbon dioxide. The entire small intestine of each rat was carefully resected starting at the ileal-cecal junction first and working back toward the pylorus of the stomach until the entire small intestine had been removed intact. The excised small bowel was arranged lengthwise along a metric straight-edge, and the length of the entire small intestine was measured in centimeters. The leading edge of the carmine dye front was visualized and the distance traveled by the carmine was also measured and calculated as a percentage of the total excised length of the small intestine. Transit was expressed as the percentage of the total intestinal length traveled by the carmine dye in 30 minutes.

rat ileum = experiment: Contractility of isolated rat GI segments ex vivo (myobath organ bath), response to PK1

T1 sequence (Q8R416 whole entry): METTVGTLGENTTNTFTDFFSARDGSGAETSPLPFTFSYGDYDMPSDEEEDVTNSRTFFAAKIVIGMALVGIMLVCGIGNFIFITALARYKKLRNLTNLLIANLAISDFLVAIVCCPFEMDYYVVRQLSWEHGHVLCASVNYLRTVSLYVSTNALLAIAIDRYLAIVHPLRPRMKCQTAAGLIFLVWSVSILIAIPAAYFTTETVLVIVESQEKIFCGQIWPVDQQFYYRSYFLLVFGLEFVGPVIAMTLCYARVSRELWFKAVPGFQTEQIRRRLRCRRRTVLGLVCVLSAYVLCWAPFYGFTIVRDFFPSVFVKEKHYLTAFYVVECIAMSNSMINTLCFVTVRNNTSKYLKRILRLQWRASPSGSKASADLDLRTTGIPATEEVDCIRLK

Molecule: COc1ccc(Cn2c(NCCn3c(N)nc4ccccc43)nc(=O)n(Cc3ccc(F)cc3)c2=O)cc1 [JNJ 28845557]
suppression of the PK1 evoked increase in Isc (PK1R [1]): suppressed | early versus late response inhibition (PK1R [2]): more potent and more effective at inhibition of the early response | effect on the PK1-induced contraction of rat ileal longitudinal smooth muscle (PK1R [2]; early and late components): concentration-dependent inhibitory effect

Molecule: CCCCNc1cc(C(=O)O)cc(S(N)(=O)=O)c1Oc1ccccc1 [bumetanide, Bumetanide]
effect on baseline G [3]: did not significantly change | change in baseline Isc after addition to the serosal bathing solution ([3]; n=5, not significantly different from DMSO vehicle): −7.1+/−8.6 μA/cm^2 | attenuation of the PK1-evoked increase in Isc ([3]; serosal): > 90%

B1: PK1: recombinant human Prokineticin 1 expressed in HEK 293 cells, FLAG tag cleaved; mixture of full-length and four C-terminal residue truncated product (protein, UniProt P58294 20-105, looked up)
Prokineticin-1: AVITGACERDVQCGAGTCCAISLWLRGLRMCTPLGREGEECHPGSHKVPFFRKRKHHTCPCLPNLLCSRFPDGRYRCSMDLKNINF
modifications: mixture with C-terminal 4-residue truncated form
notes: recombinant human Prokineticin 1 expressed in HEK 293 cells, FLAG tag cleaved; mixture of full-length and four C-terminal residue truncated product
change in Isc in tissues from PK1 receptor knock-out mice compared to wild-type littermates [4]: did not elicit a significant change in Isc | fluid accumulation in rat small bowel in vivo (rat small intestine [5]; intraperitoneal PK1 100 μg/kg, FIG. 13): stimulates fluid accumulation | fluid accumulation in rat small bowel in vivo (rat small intestine [5]; oral PK1 100 μg/kg, FIG. 12): stimulates fluid accumulation | small intestinal transit of a carmine test meal compared to vehicle (rat small intestine [6]): significantly accelerated | response of intestinal tissues (mid-duodenum, jejunum, distal ileum) (rat ileum; PK1 100 nM): evoked longitudinal contractions | response of proximal and distal colon (rat ileum; PK1 100 nM): evoked longitudinal relaxations | time to peak contraction, early phase (rat ileum; isolated rat ileum): 6.4 min | time to peak contraction, late phase (rat ileum; isolated rat ileum): 53.8 min

Continued, values first:

suppression of the PK1 evoked increase in Isc (PK1R [1]): suppressed
Molecule: [H]/N=C(\N)NCCNc1nc(=O)n(Cc2ccc(F)cc2)c(=O)n1Cc1ccc(OC)cc1 [JNJ 27624675]

suppression of the PK1 evoked increase in Isc (PK1R [1]): suppressed
Molecule: COc1ccc(Cn2c(NCCNC(=N)NC(C)C)nc(=O)n(Cc3ccc(Cl)c(Cl)c3)c2=O)cc1 [JNJ 28480894]
